Results reported in patent publication US5877166A, “Enantiomerically pure 2-aminopurine phosphonate nucleotide analogs as antiviral agents” (priority 1997, dated 1999).
In brackets after ≈: the same amount, converted by molar mass. Like-named read-outs stand apart in the source and are kept apart here.

How the values were obtained:
[1] = system: uninfected BALB/c mice; experiment: Toxicity to uninfected BALB/c mice; format: in vivo; conditions: for Kidney Damage (%) / Survivors/Total: once daily for 15 days; for Weight Change: between day 0 and day 16
From the text: (§1) Toxicity of 1-5 to uninfected BALB/c mice.
(§2) ^a Treatments were given once daily for 15 days.
(§3) ^b Difference in weight (in grams) between day 0 and day 16.

[2] = Toxicity to uninfected BALB/c mice; format: in vivo; conditions: mouse, in vivo, once daily for 15 days, read-out: Survivors (%)
From the text: as §1, §2, §3

[3] = system: murine cytomegalovirus; experiment: Activity against a murine cytomegalovirus infection in normal BALB/c mice; format: in vivo
Experimental: Activities of 1-5 and 1-6
Against a murine cytomegalovirus infection
^a Treatments were given once daily for 5 days starting 24 hours afte

[4] = system: HCMV, Strain D-16; experiment: Antiviral activity (plaque reduction) vs. HCMV, Strain D-16 in MRC-5 cells; format: cell-based, human cytomegalovirus (HCMV); conditions: for TI (therapeutic index, ratio of the median cytotoxic dose to the median effective dose): CD50/ED50, 4320 min; for inhibition at 1 µg/mL / inhibition at 3.2 µg/mL / inhibition at 10 µg/mL / inhibition at 32 µg/mL / inhibition at 100 µg/mL / inhibition at 316 µg/mL: Human betaherpesvirus 5, MRC5, 72 h, read-out: % Reduction (plaques); for EC50: Human betaherpesvirus 5, MRC5, 72 hours, MRC-5 cells, read-out: ED50 (median effective antiviral dose)
[5] = in vitro; format: cell-based; conditions: human, mrc-5 cells
Experimental: The herpes strain employed was Strain D-16 of HCMV. Continuous passaged MRC-5 cells obtained from the American Type Culture Collection (Bethesda, Md.) were used for testing, with growth medium consisting of Minimum Essential Medium (MEM) supplemented with 0.1% NaHCO3 and […] gentamicin.
To a 96-well microtiter plate containing an established 24-hour monolayer of cells from which the medium had been decanted was added 0.1 mL of varying (one-half log10) concentration of test compound, which incubated on the cell 15 minutes, after which 0.1 mL of virus in a concentration of 320 cell culture 50% infectious doses (CCID50)/0.1 mL was added. The plate was covered with plastic wrap and incubated at 37° C. The cells were examined microscopically after 72 hours. The ED50 (the median effective antiviral dose, i.e., that dose which is effective in 50% of the cells), CD50 (the median cytotoxic dose, i.e., that dose which produces cytotoxicity in 50% of the cells), and TI (the therapeutic index, meaning the ratio of the median cytotoxic dose to the median effective dose) were evaluated.

[6] = 5 mg/kg/day, once daily for 5 days
[7] = 10 mg/kg/day, once daily for 5 days
[8] = 20 mg/kg/day, once daily for 5 days
[9] = 40 mg/kg/day, once daily for 5 days
[10] = 40 mg/kg/day, once daily for 5 days starting 24 hours after virus challenge

SMILES	Mean Day to Death [3, 6] [days]	Survivors (%) [3, 6] [%]	Survivors/Total [3, 6]	Mean Day to Death [3, 7] [days]	Survivors (%) [3, 7] [%]	Survivors/Total [3, 7]	Mean Day to Death [3, 8] [days]	Survivors (%) [3, 8] [%]	Survivors/Total [3, 8]	Mean Day to Death [3, 9] [days]	Survivors (%) [3, 9] [%]	Survivors/Total [3, 10]	Number of Plaques ([4]; 1 μg/mL)	Number of Plaques ([4]; 3.2 μg/mL)	Number of Plaques ([4]; 10 μg/mL)	Number of Plaques ([4]; 32 μg/mL)	Number of Plaques ([4]; 100 μg/mL)	Number of Plaques ([4]; 316 μg/mL)	TI (therapeutic index, ratio of the median cytotoxic dose to the median effective dose) [4]	inhibition at 1 µg/mL ([4]; 1 μg/mL) [%]	further results
Nc1ncc2ncn(CO[C@@H](CO)CCP(=O)(O)O)c2n1 [Compound 1-5, 2-Amino-9-[(R(-)-1-hydroxymethyl-3-phosphono)-1-propyloxymethyl]-9H-purine]	9.6 ± 4.6	50	5/10	10.0 ± 3.6	70	7/10	11.5 ± 0.7	80	8/10	> 21	100	10/10									Kidney Damage (%) ([1]; 100 mg/kg/day): 0%; Survivors/Total ([1]; 100 mg/kg/day): 3/3; Weight Change ([1]; 100 mg/kg/day): +7.0 grams; Kidney Damage (%) ([1]; 200 mg/kg/day): 0%; Survivors/Total ([1]; 200 mg/kg/day): 3/3; Weight Change ([1]; 200 mg/kg/day): +7.8 grams; Kidney Damage (%) ([1]; 400 mg/kg/day): 0%; Survivors/Total ([1]; 400 mg/kg/day): 3/3; Weight Change ([1]; 400 mg/kg/day): +6.6 grams; Kidney Damage (%) ([1]; 600 mg/kg/day): 0%; Survivors/Total ([1]; 600 mg/kg/day): 3/3; Weight Change ([1]; 600 mg/kg/day): +4.5 grams; survival ([2]; 100 mg/kg/day): 100%; survival ([2]; 200 mg/kg/day): 100%; survival ([2]; 400 mg/kg/day): 100%; survival ([2]; 600 mg/kg/day): 100%
Nc1ncc2ncn(CO[C@@H]3CCP(=O)(O)OC3)c2n1 [Compound 1-6]	6.4 ± 0.5	0	0/10	7.4 ± 2.0	0	0/10	6.1 ± 0.4	30	3/10	8.3 ± 4.9	40	4/10	51.0	56.0	33.0	6.5	0.0	0.0	73	37	% Reduction (given as toxic) ([4]; 1000 μg/mL): toxic; Number of Plaques (given as toxic) ([4]; 1000 μg/mL): toxic; inhibition at 3.2 µg/mL ([4]; 3.2 μg/mL): 31%; inhibition at 10 µg/mL ([4]; 10 μg/mL): 59%; inhibition at 32 µg/mL ([4]; 32 μg/mL): 92%; inhibition at 100 µg/mL ([4]; 100 μg/mL): 100%; inhibition at 316 µg/mL ([4]; 316 μg/mL): 100%; EC50 [4]: 6.7 µg/mL (≈ 22.4 µM); CC50 at 72 h [5]: 487 µg/mL (≈ 1630 µM)
Nc1nc2c(ncn2COC(CO)CO)c(=O)[nH]1 [DHPG, 9-[(1,3dihydroxy-2-propoxy)methyl] guanine, reference compound]													69.0	57.0	24.5	2.0	0.0	0.0	> 44	0	inhibition at 3.2 µg/mL ([4]; 3.2 μg/mL): 0%; inhibition at 10 µg/mL ([4]; 10 μg/mL): 70%; inhibition at 32 µg/mL ([4]; 32 μg/mL): 98%; inhibition at 100 µg/mL ([4]; 100 μg/mL): 100%; inhibition at 316 µg/mL ([4]; 316 μg/mL): 100%; EC50 [4]: 7.2 µg/mL (≈ 28.2 µM); CC50 at 72 h [5]: > 316 µg/mL
